Laboratory results taken from patent US8962616B2, “Heterocyclic substituted hexahydropyrano[3,4-d][1,3]thiazin-2-amine compounds” (Pfizer Inc., priority 2012, dated 2015).
pIC50: −log10 of the molar value. Where a name gives a salt, the structure may show the parent alone.

What was measured:
BACE1 enzyme = BACE1 enzyme (Homo sapiens (Human), UniProt P56817); assay: BACE1 Cell-Free Assay (fluorescence polarization, synthetic APP substrate); assay type: biochemical; conditions: geometric mean of 2-7 determinations (values marked b: single determination)
Sequence of BACE1 enzyme (P56817 46-457): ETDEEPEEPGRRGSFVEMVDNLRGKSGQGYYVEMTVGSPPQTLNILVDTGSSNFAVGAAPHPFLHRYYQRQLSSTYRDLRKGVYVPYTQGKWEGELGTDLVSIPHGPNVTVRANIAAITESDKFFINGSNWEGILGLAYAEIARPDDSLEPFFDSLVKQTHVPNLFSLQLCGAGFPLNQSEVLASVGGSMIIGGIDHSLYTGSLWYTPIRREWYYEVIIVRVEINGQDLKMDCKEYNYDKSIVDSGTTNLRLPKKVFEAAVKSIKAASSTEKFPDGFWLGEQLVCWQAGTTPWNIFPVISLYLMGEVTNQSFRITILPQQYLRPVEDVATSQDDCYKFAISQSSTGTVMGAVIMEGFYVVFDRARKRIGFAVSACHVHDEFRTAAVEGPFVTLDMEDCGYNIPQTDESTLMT
Description: This assay measures the inhibition of the beta-secretase enzyme as it cleaves a non-native peptide.
A synthetic APP substrate that can be cleaved by beta-secretase having N-terminal biotin and made fluorescent by the covalent attachment of Oregon Green at the Cys residue is used to assay beta-secretase activity in the presence or absence of the inhibitory compounds. […] The BACE1 enzyme is affinity purified material from conditioned media of CHO-K1 cells that have been transfected with a soluble BACE construct (BACE1deltaTM96His). Compounds are incubated in a ½ log dose response curve from a top concentration of 100 μM with BACE1 enzyme and the biotinylated fluorescent peptide in 384-well black plates (Thermo Scientific #4318). BACE1 is at a final concentration of 0.1 nM with a final concentration of peptide substrate of 150 nM in a reaction volume of 30 μL assay buffer (100 mM sodium acetate, pH 4.5 (brought to pH with acetic acid), and 0.001% Tween-20). Plates are covered and incubated for 3 hours at 37° C. The reaction is stopped with the addition of 30 μL of 1.5 μM Streptavidin (Pierce, #21125). After a 10 minute incubation at room temperature, plates are read on a PerkinElmer Envision for fluorescent polarization (Ex485 nm/Em530 nm). The activity of the beta-secretase enzyme is detected by changes in the fluorescence polarization that occur when the substrate is cleaved by the enzyme.

[1] = test system: H4 human neuroglioma cells over-expressing the wild-type human APP695; assay: sAPPβ Whole-Cell Assay (in vitro sAPPb assay, ELISA); assay type: cell-based; conditions: 18 hours, geometric mean of 2-7 determinations (values marked b: single determination)
Procedure: Whole Cell-Free Assay (In Vitro sAPPb Assay):
H4 human neuroglioma cells over-expressing the wild-type human APP695 are treated for 18 hours with compound in a final concentration 1% DMSO. sAPPβ levels are measured using TMB-ELISA with capture APP N-terminal antibody (Affinity BioReagents, OMA1-03132), wild-type sAPPβ specific reporter p192 (Elan), and tertiary anti rabbit-HRP (GE Healthcare).

BACE2 enzyme = BACE2 enzyme (Homo sapiens (Human), UniProt Q9Y5Z0); assay: BACE2 Cell-free Assay (fluorescence polarization, synthetic substrate); assay type: biochemical; conditions: single determination
Sequence of BACE2 enzyme (Q9Y5Z0 63-518): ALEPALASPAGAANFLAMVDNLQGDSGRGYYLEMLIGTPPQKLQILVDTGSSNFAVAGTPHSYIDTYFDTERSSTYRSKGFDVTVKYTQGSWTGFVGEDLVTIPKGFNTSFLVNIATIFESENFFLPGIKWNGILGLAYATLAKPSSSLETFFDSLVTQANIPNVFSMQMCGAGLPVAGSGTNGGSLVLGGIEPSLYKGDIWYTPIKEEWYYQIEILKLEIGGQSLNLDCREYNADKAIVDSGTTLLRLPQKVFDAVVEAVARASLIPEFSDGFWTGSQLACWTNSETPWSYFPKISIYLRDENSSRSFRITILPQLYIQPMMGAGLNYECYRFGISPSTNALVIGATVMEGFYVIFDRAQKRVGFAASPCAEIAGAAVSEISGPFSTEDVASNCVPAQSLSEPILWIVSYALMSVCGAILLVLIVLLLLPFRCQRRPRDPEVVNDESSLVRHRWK
Procedure: This assay measures the inhibition of the BACE2 enzyme as it cleaves a non-native peptide. A synthetic substrate that can be cleaved by BACE2 having N-terminal biotin and made fluorescent by the covalent attachment of Oregon Green at the Cys residue is used to assay BACE2 activity in the presence or absence of the inhibitory compounds. The substrate is Biotin-[…]-C(Oregon green)-KK-OH. The BACE2 enzyme is available from Enzo Life Sciences (Cat # BML-SE550). Compounds are incubated in a ½ log dose response curve from a top concentration of 100 μM with BACE2 enzyme and the biotinylated fluorescent peptide in 384-well black plates (Thermo Scientific #4318). BACE2 is at a final concentration of 2.5 nM with a final concentration of peptide substrate of 150 nM in a reaction volume of 30 μL assay buffer (100 mM Sodium Acetate, pH 4.5 (brought to pH with acetic acid), and 0.001% Tween-20). Plates are covered and incubated for 3 hours at 37° C. The reaction is stopped with the addition of 30 μL of 1.5 μM Streptavidin (Pierce, #21125). After a 10 minute incubation at room temperature, plates are read on a PerkinElmer Envision for fluorescent polarization (Ex485 nm/Em530 nm). The activity of the beta-secretase enzyme is detected by changes in the fluorescence polarization that occur when the substrate is cleaved by the enzyme.

| Molecule | pIC50 (BACE1 enzyme) | pIC50 ([1]; Homo sapiens) | pIC50 (BACE2 enzyme) | pIC50 [1] |
| --- | --- | --- | --- | --- |
| Cc1cnc([C@H]2C[C@H]3CSC(N)=N[C@@]3(c3ccc(F)cc3F)CO2)nc1 [Example 24, (4aR,6R,8aS)-8a-(2,4-difluorophenyl)-6-(5-methylpyrimidin-2-yl)-4,4a,5,6,8,8a-hexahydropyrano[3,4-d][1,3]thiazin-2-amine, trifluoroacetate salt] | 6.16 | 7.62 | 5.97 |  |
| (4aR,6R,8aS)-8a-(2,4-Difluorophenyl)-6-(3-methyl-1,2,4-oxadiazol-5-yl)-4,4-a,5,6,8,8a-hexahydropyrano[3,4-][1,3]thiazin-2-amine, trifluoroacetate salt [Example 13] | 6.36 |  | 6.68 | 7.47 |
| (4aR,6R,8aS)-8a-(2,4-Difluorophenyl)-6-(5-methyl-1,3,4-oxadiazol-2-yl)-4,4-a,5,6,8,8a-hexahydropyrano[3,4-d][1,3]thiazin-2-amine [Example 17] | 6.52 |  | 5.25 | 8.00 |
